# Measured values: ChEMBL document CHEMBL3352167 (Bioorg Med Chem, 2015)
# How the values were obtained:
# Cavia porcellus = species: Cavia porcellus; assay: Selectivity ratio of Ki for guinea pig brain sigma2 receptor to Ki for guinea pig brain sigma1 receptor
# [1] = target: Sigma non-opioid intracellular receptor 1 (Cavia porcellus, UniProt Q60492); assay: Displacement of [3H]-(+)-pentazocine from sigma1 receptor in guinea pig brain membrane after 150 mins by scintillation counting analysis; assay type: cell membranes
# [2] = target: Sodium-dependent dopamine transporter (Mus musculus) (UniProt Q61327); assay: […] from mouse DAT in striatal membranes at 10000 nM; assay type: cell membranes; settings: Striatum, Membrane
# [3] = Displacement of [3H]DTG from sigma2 receptor in guinea pig brain membrane after 120 mins by scintillation counting analysis; assay type: cell membranes, Cavia porcellus
# [4] = target: Sodium-dependent dopamine transporter (Mus musculus, UniProt Q61327); assay: Displacement of [3H]RTI-121 from mouse DAT in striatal membranes; assay type: cell membranes, Striatum, Membrane
# [5] = Selectivity ratio of Ki for mouse SERT to Ki for guinea pig brain sigma1 receptor
# [6] = Selectivity ratio of Ki for mouse DAT to Ki for guinea pig brain sigma1 receptor
# [7] = target: Sodium-dependent serotonin transporter (Mus musculus, UniProt Q60857); assay: Displacement of [3H]paroxetine from mouse SERT in whole brain membrane; assay type: cell membranes
# Chain of Sodium-dependent serotonin transporter (Q60857 whole entry): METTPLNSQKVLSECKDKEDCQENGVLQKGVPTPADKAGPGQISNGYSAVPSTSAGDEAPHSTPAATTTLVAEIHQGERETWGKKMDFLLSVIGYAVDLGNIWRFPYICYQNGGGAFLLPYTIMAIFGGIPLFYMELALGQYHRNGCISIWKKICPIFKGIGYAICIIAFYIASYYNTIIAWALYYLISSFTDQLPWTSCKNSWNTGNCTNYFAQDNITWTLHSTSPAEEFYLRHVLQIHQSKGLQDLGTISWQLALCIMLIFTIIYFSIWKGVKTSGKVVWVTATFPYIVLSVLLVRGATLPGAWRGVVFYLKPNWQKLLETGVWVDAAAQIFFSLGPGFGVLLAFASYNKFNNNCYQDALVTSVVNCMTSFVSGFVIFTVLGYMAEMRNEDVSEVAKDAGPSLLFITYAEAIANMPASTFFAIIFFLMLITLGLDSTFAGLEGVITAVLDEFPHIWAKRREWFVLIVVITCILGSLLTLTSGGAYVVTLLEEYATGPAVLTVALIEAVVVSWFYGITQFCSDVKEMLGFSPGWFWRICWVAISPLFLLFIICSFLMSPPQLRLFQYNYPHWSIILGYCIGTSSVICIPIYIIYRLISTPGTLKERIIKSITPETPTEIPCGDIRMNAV
# Chain of Sigma non-opioid intracellular receptor 1 (Q60492 whole entry): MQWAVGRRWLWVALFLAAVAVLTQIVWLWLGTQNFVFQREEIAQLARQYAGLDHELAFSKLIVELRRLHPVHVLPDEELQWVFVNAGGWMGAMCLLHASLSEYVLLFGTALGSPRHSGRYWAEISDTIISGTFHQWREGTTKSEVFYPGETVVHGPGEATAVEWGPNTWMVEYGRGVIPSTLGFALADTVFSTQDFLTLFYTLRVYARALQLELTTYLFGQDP
# Chain of Sodium-dependent dopamine transporter (Q61327 whole entry): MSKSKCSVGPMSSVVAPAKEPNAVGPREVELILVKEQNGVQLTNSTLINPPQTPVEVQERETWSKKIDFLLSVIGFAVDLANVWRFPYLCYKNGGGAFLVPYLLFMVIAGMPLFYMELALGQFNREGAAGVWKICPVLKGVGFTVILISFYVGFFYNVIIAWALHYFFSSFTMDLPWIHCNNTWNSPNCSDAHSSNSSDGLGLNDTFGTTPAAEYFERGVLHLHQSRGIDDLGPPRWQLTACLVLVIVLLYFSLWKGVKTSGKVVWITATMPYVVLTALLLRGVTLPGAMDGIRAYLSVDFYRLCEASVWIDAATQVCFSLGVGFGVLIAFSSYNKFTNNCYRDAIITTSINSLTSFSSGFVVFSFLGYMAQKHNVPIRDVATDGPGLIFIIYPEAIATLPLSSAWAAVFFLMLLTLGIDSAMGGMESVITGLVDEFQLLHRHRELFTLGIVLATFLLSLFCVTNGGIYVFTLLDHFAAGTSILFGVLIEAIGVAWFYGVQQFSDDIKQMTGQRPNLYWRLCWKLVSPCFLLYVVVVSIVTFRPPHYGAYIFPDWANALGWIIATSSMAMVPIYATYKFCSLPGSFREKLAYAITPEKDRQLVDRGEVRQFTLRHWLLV
# Chain of Sodium-dependent dopamine transporter (Mus musculus) (Q61327 whole entry): as above
Compound,Ratio Ki (Cavia porcellus),Ki [1] [nM],Inhibition % [2] [%],Ki [3] [nM],Ki [4] [nM],Ratio Ki [5],Ratio Ki [6],Ki [7] [nM]
c1ccc(CCCN2CCN(CCc3ccc4c(c3)OCCCO4)CC2)cc1,2.7,19.1,43,52.1,,,,
COc1cccc(CCN2CCN(CCCc3ccccc3)CC2)c1,7.3,1.4,,10.2,1410,703,1010,985
COc1cc(CCN2CCN(CCCc3ccccc3)CC2)ccc1OCc1ccccc1,0.8,20.8,93,16.4,121,6.2,6,128
COc1cc(CCN2CCN(CCCc3ccccc3)CC2)ccc1OCCc1ccccc1,1.2,13.3,89,16.6,,,,
COc1cc(CCN2CCN(CCCc3ccccc3)CC2)ccc1O,3.8,1.75,,6.72,,,,
C=CCOc1ccc(CCN2CCN(CCCc3ccccc3)CC2)cc1OC,1.4,30.1,44,42.1,2080,9.8,69,295
COc1ccc(CCN2CCN(CCCc3ccccc3)CC2)cc1,22,1.3,,28.6,1470,1330,1130,1730
c1ccc(CCCN2CCN(CCc3ccc4c(c3)OCO4)CC2)cc1,5.8,2.55,42,14.8,1840,184,721,468
c1ccc(CCCN2CCN(CCc3ccc4c(c3)OCCO4)CC2)cc1,3.4,10.2,33,35.2,,,,
COc1cc(CCN2CCN(CCCc3ccccc3)CC2)ccc1OCCCc1ccccc1,1.3,18.4,97,23.3,87,,5,
COc1ccc(CCN2CCN(CCCc3ccccc3)CC2)cc1OC [[11C]SA4503],,,,63.1,,,,760
Clc1ccc(CCN2CCN(CCCc3ccccc3)CC2)cc1Cl,,2.2,,38.8,,,,2860
COc1ccccc1CCN1CCN(CCCc2ccccc2)CC1,,,,7.5,,,,

# Other lines, results leading:
Ratio Ki (Cavia porcellus),Ki [1] [nM],Inhibition % [2] [%],Ki [3] [nM],Ki [4] [nM],Ratio Ki [5],Ratio Ki [6],Ki [7] [nM],Compound
1.1,25.4,38,27.1,,,,,COc1cc(CCN2CCN(CCCc3ccccc3)CC2)ccc1OCCBr
39,6.4,19,250,,,,,COc1cc(CCN2CCN(CCCc3ccccc3)CC2)ccc1OCF
1.3,25.6,43,33.4,1820,4.8,71,124,CCCOc1ccc(CCN2CCN(CCCc3ccccc3)CC2)cc1OC
14.1,8.03,23,113,,,,,COc1cc(CCN2CCN(CCCc3ccccc3)CC2)ccc1OCCF
1.6,10.7,94,16.7,237,,22,,COc1cc(CCN2CCN(CCCc3ccccc3)CC2)ccc1OC/C=C\I
1.1,16.9,69,18.2,560,10.3,33,174,COc1cc(CCN2CCN(CCCc3ccccc3)CC2)ccc1OC/C=C/I
